What was measured:
IspD [1] = biological target: T1, IspD (Escherichia coli, UniProt Q46893); assay: MESG coupled pyrophosphate assay, inhibition of MEP turnover; type: biochemical
T1 sequence (Q46893 2-236): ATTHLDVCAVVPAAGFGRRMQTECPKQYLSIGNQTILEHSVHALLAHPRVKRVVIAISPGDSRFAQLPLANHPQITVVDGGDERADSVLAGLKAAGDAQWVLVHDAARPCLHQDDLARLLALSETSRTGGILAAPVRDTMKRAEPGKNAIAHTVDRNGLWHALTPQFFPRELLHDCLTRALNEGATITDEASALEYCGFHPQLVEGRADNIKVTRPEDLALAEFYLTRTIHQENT

IspD [2] = biological target: T2, IspD (Plasmodium falciparum, UniProt Q8I273); assay: as above; type: biochemical
T2 sequence (Q8I273 60-734): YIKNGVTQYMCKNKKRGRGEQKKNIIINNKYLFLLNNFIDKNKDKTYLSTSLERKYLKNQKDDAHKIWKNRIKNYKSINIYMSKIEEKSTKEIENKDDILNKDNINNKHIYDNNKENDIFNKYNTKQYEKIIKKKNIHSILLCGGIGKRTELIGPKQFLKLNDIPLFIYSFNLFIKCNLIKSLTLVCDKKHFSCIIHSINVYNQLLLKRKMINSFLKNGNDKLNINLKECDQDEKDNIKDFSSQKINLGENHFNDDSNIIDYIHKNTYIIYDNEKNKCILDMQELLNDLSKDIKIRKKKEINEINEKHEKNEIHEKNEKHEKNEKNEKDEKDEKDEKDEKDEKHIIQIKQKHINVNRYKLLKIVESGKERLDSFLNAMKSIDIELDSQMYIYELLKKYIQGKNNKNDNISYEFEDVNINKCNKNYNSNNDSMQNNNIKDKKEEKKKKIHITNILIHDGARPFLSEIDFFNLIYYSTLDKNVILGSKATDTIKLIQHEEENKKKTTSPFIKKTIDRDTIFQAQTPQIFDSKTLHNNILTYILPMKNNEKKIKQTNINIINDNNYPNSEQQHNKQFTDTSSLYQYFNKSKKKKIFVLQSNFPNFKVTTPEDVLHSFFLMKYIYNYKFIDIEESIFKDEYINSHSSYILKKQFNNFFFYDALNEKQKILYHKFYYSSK

C[C@](O)(CO)[C@H](O)C[C@@H](F)P(=O)(O)O [5b, (5S)-D-methylerythritol monofluoromethyl phosphonate]
IC50 (IspD [1]): 0.7 ± 0.1 mM
IC50 (IspD [2]): 1.3 ± 0.7 mM
